Data from ChEMBL document CHEMBL1201862, “PubChem BioAssay data set” (2004).
Calls of active or inactive are those of the source.

How the values were obtained:
H9c2 = test: cells; assay type: functional, cell-based; conditions: Rattus norvegicus, H9c2, Myocardium;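 also: confirmatory concentration-response retest of ultra-high-throughput screening hits for modulation of myocardial damage; cell death induced by hydrogen peroxide oxidative stress; compound pretreatment for 60 min then peroxide exposure for 2 h; potency is for protecting the cells against peroxide damage rather than for killing them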
Large T antigen = Large T antigen (Simian virus 40, UniProt P03070); assay type: functional, Betapolyomavirus macacae;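 also: Confirmatory-stage PubChem screen for compounds that inhibit SV40 T antigen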
Sequence of Large T antigen (P03070 whole entry): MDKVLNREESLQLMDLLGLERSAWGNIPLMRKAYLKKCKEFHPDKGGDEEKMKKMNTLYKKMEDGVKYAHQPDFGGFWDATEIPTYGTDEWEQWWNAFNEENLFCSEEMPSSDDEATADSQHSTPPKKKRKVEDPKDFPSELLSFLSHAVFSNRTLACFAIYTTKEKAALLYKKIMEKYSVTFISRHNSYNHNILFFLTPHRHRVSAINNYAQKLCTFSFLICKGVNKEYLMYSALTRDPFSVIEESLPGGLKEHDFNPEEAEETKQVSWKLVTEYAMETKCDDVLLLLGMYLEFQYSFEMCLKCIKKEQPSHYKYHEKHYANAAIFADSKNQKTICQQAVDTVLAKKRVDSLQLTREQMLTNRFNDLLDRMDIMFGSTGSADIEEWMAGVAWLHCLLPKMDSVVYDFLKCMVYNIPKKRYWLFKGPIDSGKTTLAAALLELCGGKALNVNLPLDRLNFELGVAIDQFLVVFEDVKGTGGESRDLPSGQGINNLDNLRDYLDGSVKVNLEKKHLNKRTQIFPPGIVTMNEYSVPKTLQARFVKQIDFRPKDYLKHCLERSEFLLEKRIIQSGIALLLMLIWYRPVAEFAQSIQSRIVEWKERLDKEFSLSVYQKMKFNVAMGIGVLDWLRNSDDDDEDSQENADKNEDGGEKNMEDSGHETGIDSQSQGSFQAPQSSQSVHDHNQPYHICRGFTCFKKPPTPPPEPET

Cytochrome P450 2D6 = Cytochrome P450 2D6 (Homo sapiens, UniProt P10635);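 also: CYP2D6 member of a cytochrome P450 panel assay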
Sequence of Cytochrome P450 2D6 (P10635 whole entry): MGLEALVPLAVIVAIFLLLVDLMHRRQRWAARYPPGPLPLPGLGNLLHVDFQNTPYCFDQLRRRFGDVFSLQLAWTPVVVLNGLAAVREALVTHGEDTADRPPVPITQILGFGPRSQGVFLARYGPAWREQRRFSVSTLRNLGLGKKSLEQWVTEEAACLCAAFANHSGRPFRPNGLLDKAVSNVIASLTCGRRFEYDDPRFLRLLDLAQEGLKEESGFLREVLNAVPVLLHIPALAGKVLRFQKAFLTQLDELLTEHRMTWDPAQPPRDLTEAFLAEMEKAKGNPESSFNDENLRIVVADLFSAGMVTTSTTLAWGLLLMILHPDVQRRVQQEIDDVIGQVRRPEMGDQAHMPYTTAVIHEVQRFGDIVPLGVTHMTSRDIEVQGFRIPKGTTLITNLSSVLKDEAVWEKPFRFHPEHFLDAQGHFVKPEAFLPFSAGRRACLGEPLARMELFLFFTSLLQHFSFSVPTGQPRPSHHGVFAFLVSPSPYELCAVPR

[1] = biological target: Eukaryotic translation initiation factor 4E (Mus musculus, UniProt P63073); test: eIF4E–eIF4G protein interaction inhibitors, dose response, biochemical, TR-FRET (AID 855); assay type: functional;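 also: potency for disrupting eIF4E binding to eIF4GI seen as loss of FRET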
Sequence of Eukaryotic translation initiation factor 4E (P63073 whole entry): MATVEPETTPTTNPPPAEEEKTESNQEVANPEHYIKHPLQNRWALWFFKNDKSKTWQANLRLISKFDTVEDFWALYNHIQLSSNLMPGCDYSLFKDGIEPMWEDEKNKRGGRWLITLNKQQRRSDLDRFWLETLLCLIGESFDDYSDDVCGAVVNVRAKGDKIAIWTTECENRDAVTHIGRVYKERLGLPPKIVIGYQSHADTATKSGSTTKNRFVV

Coagulation factor XII = biological target: T1, Coagulation factor XII (Homo sapiens, UniProt P00748); assay type: functional;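 also: activated factor XIIa alpha cleaving a fluorogenic AMC peptide substrate; inhibitor potency from loss of enzyme activity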
T1 sequence (P00748 whole entry): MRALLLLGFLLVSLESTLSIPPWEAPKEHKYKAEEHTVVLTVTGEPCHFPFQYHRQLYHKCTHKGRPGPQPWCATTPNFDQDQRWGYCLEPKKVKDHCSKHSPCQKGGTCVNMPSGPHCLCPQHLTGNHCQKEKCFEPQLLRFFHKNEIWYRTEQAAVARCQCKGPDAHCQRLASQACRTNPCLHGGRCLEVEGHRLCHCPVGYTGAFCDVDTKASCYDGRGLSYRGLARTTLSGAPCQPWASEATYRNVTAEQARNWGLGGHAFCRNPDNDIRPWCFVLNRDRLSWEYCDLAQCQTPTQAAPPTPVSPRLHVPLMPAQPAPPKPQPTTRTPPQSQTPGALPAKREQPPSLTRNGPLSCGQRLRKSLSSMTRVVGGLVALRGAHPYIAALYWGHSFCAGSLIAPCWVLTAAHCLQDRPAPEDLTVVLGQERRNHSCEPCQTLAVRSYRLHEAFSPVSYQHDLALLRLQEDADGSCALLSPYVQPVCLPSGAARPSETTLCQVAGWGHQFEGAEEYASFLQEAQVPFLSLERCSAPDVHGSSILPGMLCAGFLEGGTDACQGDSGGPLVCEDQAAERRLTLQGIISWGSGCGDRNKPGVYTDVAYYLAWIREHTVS

[2] = biological target: T2, Corticotropin-releasing factor receptor 2/Corticotropin-releasing factor-binding protein (Homo sapiens, UniProt P24387+Q13324); test: Dose Response confirmation of uHTS hits for small molecule antagonists of the CRF-binding protein and CRF-R2 receptor complex.; assay type: functional; conditions: read-out: IC50_Mean
T2 sequence (Q13324 whole entry): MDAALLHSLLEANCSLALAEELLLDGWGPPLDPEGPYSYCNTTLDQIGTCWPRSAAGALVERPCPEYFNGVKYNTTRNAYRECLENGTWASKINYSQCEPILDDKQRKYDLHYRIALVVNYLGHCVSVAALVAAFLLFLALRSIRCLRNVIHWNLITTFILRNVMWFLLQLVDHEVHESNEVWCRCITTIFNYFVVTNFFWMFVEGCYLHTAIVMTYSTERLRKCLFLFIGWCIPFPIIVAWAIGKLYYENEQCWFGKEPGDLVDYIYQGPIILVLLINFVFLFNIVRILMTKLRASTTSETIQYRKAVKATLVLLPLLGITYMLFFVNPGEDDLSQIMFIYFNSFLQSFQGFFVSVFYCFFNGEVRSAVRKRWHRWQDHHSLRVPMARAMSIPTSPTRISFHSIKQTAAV
T2 sequence (P24387 whole entry): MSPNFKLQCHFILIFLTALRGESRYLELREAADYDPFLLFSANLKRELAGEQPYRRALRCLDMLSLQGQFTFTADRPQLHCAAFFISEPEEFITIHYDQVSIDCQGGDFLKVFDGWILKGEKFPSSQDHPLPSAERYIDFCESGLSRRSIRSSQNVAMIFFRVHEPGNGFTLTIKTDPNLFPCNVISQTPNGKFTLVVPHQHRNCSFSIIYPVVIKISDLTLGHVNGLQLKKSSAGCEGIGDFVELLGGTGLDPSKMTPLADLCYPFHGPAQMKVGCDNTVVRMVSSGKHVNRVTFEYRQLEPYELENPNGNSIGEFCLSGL

[3] = biological target: T2, Corticotropin-releasing factor receptor 2/Corticotropin-releasing factor-binding protein; test: activators of CRF receptor 2 with binding protein – uHTS hits, confirmation (AID 602473); assay type: functional; conditions: read-out: EC50_Mean
[4] = biological target: Induced myeloid leukemia cell differentiation protein Mcl-1 (Homo sapiens, UniProt Q07820); assay type: functional
Sequence of Induced myeloid leukemia cell differentiation protein Mcl-1 (Q07820 whole entry): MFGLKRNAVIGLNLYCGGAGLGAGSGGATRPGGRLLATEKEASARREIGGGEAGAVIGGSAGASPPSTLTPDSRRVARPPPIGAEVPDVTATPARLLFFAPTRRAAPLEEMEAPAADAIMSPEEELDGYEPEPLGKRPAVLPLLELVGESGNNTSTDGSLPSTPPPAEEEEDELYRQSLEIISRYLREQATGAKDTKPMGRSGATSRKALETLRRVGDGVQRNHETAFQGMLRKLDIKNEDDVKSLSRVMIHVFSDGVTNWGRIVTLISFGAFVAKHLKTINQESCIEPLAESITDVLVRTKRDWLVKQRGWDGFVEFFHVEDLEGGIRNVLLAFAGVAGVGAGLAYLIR

[5] = biological target: T3, Endoribonuclease toxin MazF (Escherichia coli K-12, UniProt P0AE70); test: MazF toxin RNase activators, dose response, biochemical, fluorescence, single-stranded RNA substrate, uHTS hits (AID 588481); assay type: functional
T3 sequence (P0AE70 whole entry): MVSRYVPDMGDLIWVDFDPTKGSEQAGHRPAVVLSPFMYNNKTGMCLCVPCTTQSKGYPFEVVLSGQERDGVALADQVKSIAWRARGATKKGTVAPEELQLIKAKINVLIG

[6] = biological target: T3, Endoribonuclease toxin MazF; test: fluorescent RNA oligo signal without MazF, dose response, counter-screen for MazEF activator project, biochemical, fluorescence, single-stranded RNase substrate (AID 588502); assay type: functional
[7] = HEp-2 cell cytotoxicity, dose response, cytotoxicity control for RSV inhibitor project, HTS (AID 2410); assay type: functional; conditions: human respiratory syncytial virus
Streptococcus = test: Group A Streptococcus viability loss, dose response, counter-screen for streptokinase expression inhibitor project, luminescence, BacTiterGlo (AID 1915); assay type: functional, organism-based;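 also: potency for reduction of bacterial viability or growth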
[8] = biological target: T4, Rac GTPase-activating protein 1 (Homo sapiens, UniProt Q9H0H5); test: MgcRacGAP GTPase-activating activity inhibitors, confirmation, biochemical, ADP Hunter fluorescence, primary and confirmatory (AID 624330); assay type: functional
T4 sequence (Q9H0H5 whole entry): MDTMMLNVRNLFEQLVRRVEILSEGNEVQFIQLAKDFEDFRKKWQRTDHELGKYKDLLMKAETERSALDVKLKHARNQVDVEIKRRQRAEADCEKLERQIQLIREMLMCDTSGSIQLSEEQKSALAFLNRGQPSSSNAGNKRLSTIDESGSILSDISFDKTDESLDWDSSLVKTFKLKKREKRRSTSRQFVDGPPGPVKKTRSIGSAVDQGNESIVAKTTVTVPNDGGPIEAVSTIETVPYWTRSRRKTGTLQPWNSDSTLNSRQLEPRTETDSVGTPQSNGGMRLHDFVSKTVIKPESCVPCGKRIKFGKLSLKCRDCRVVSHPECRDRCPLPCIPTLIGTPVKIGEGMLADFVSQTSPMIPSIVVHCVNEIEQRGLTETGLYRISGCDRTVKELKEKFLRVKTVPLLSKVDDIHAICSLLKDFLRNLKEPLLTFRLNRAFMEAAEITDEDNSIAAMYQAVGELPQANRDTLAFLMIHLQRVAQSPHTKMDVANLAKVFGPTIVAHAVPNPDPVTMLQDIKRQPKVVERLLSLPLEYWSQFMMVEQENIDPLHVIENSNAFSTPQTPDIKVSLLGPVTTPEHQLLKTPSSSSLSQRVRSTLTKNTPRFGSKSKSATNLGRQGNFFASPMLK

Streptokinase A = biological target: T5, Streptokinase A (Streptococcus pyogenes serotype M1, UniProt P10520); test: S. pyogenes streptokinase expression inhibitors, potency, dose response, plasminogen activation absorbance, OD405 (AID 1914); assay type: functional, Streptococcus pyogenes M1 GAS;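 also: secreted streptokinase activity via plasminogen activation per viability signal from cell pellet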
T5 sequence (P10520 whole entry): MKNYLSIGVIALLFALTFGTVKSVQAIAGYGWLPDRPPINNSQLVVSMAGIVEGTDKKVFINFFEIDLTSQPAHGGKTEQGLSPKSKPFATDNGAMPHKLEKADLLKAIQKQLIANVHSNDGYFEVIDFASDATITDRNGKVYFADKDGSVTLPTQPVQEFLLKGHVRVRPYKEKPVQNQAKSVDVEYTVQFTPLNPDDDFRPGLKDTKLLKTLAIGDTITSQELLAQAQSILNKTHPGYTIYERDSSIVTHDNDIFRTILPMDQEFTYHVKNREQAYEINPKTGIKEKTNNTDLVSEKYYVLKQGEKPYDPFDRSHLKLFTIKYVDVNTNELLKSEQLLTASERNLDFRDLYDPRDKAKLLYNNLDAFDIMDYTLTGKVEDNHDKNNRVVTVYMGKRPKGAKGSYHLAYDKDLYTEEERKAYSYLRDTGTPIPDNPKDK

Cytochrome P450 1A2 = biological target: T6, Cytochrome P450 1A2 (Homo sapiens, UniProt P05177);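 also: PubChem cytochrome P450 panel assay, CYP1A2 panel member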
T6 sequence (P05177 whole entry): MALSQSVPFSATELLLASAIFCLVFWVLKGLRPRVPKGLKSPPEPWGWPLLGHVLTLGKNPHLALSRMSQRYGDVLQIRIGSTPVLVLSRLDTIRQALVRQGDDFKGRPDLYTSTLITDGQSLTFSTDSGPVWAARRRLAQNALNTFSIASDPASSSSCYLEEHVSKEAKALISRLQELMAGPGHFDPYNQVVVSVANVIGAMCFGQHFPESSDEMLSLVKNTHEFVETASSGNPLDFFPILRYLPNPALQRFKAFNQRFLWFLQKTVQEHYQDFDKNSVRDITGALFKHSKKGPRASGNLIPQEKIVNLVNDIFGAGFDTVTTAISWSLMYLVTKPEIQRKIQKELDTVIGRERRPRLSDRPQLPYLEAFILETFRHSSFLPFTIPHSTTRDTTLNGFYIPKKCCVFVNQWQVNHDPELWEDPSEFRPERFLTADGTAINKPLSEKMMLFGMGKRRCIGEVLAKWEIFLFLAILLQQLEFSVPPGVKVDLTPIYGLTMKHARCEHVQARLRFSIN

Leucine aminopeptidase = biological target: T7, Leucine aminopeptidase (Plasmodium falciparum 3D7, UniProt Q8IL11); test: P. falciparum M17LAP inhibitors, primary screen, biochemical, fluorogenic H-Leu-NHMec substrate, 1536-well (AID 1619); assay type: functional
T7 sequence (Q8IL11 whole entry): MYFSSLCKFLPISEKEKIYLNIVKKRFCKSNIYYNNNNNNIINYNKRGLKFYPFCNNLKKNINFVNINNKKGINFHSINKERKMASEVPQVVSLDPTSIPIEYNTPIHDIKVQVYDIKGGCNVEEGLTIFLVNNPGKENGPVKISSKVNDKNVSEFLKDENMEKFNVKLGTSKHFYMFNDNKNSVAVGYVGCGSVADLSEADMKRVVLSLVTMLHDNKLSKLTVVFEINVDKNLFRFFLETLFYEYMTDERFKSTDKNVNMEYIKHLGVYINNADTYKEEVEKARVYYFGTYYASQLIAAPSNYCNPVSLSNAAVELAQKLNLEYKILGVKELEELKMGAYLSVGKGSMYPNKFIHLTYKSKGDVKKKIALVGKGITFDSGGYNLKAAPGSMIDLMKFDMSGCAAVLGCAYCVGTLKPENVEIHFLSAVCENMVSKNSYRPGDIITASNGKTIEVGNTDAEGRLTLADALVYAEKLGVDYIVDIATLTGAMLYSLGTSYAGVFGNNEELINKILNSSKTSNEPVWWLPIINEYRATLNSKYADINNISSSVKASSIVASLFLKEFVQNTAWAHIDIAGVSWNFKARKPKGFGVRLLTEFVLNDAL

O=c1cc(CSc2nc(O)c3ccccc3n2)c2ccc(O)cc2o1
IC50 (H9c2): > 79 µM (inactive)

CSc1nc(O)c2c3c(sc2n1)CCC3
IC50 (H9c2): > 79 µM (inactive)

Nc1ccc(-c2sc(N)nc2-c2ccccc2)cc1
IC50 (Large T antigen): 14.5 µM (active)
AC50 (Cytochrome P450 2D6): 17.8 µM (inconclusive)

CC(=O)OC1=C(C#N)Cn2ccc3cccc1c32
IC50 [1]: > 64 µM (inactive)

C=CCOc1c(CNc2ccc3[nH]c(O)nc3c2)cccc1OC
IC50 (Large T antigen): 96.9 µM (active)

CCOc1ccc2nc(O)c(C(c3nnnn3C3CCCCC3)N3CCN(C)CC3)cc2c1 (stereo not drawn)
IC50 (Coagulation factor XII): > 50 µM (inactive)

Brc1cccc(C2CC(c3ccccc3)n3nnnc3N2)c1 (stereo not drawn)
IC50 [1]: > 64 µM (inactive)
IC50 [2]: > 47.1 µM (inactive)
EC50 [3]: > 53 µM (inactive)

O=C(NC(=S)Nc1ccc(O)cc1)c1ccccc1Cl
IC50 (Large T antigen): 6.97 µM (active)

CN(C)c1ccc(NC(=O)c2ccc([N+](=O)[O-])cc2Cl)cc1
IC50 [4]: 1.11 µM (not active)

CCN1C(=S)SC(=O)C1=C1C=C(C)OC(C)=C1
EC50 [5]: > 99 µM (inactive)
EC50 [6]: > 99 µM (inactive)

N#C/C(=C\Nc1ccc2c(c1)OCCO2)c1nc2ccccc2[nH]1
IC50 (H9c2): > 79 µM (inactive)
CC50 [7]: 21.4 µM (active)

COC(=O)c1c(NC(=O)c2c(-c3ccccc3Cl)noc2C)sc2c1CCC2
IC50 (Coagulation factor XII): 4.24 µM (active)

Nc1ccc2[nH]c(-c3ccc(Cl)cc3)nc2c1
EC50 (Streptococcus): > 150 µM (not active)
IC50 [4]: 8.16 µM (not active)
IC50 [8]: 37.8 µM (active)
EC50 (Streptokinase A): > 150 µM (not active)

CC(NC(=O)c1cc2c(=O)n(C)c3ccccc3c2n1C)c1ccc2c(c1)OCCO2 (stereo not drawn)
IC50 (H9c2): > 79 µM (inactive)

Cc1ccc(NS(=O)(=O)c2cc(-c3nnc(O)c4ccccc34)ccc2C)cc1
IC50 (H9c2): 14.7 µM (active)

CC(NC(=O)c1ccc(Cn2cc([N+](=O)[O-])cn2)o1)c1ccccc1 (stereo not drawn)
IC50 [1]: > 64 µM (inactive)
AC50 (Cytochrome P450 1A2): 17.8 µM (inconclusive)

FC(F)C(F)(F)C(F)(F)C(F)(F)c1cc(-c2ccccc2)n[nH]1
IC50 (Coagulation factor XII): > 50 µM (inactive)

OC1=C2C(=Nc3nc(S)nc(O)c3C2c2ccc(Br)cc2)CCC1 (stereo not drawn)
IC50 [1]: > 64 µM (inactive)
IC50 (Leucine aminopeptidase): 16.7 µM (active)
IC50 (Large T antigen): 48.1 µM (active)

O=C(CCc1nc(O)c2ccccc2n1)OCc1nnc(-c2ccccc2)o1
IC50 (H9c2): 13 µM (active)

Cc1ccc([N+](=O)[O-])cc1-c1ccc2cccc(C)c2n1
IC50 [1]: > 64 µM (inactive)

CC(C)(C)OC(=O)NCc1ccc(NC(=O)c2[nH]cnc2C(=O)NCCCCCCNC(=O)c2nc[nH]c2C(=O)Nc2ccc(CNC(=O)OC(C)(C)C)cc2)cc1
IC50 (H9c2): > 79 µM (inactive)

Cc1cccc2cc(/C=N/NC(=O)c3ccccc3O)c(Cl)nc12
IC50 [4]: 5.52 µM (active)
EC50 [3]: > 53 µM (inactive)

Cn1c(SCC(=O)N/N=C/c2ccc(O)c(O)c2)nc2ccccc21
IC50 (Large T antigen): 3.29 µM (active)

CCN1C(=O)[C@H]2[C@@H](c3ccc(-c4ccc(C(C)=O)cc4)cc3)N[C@@](C)(C(=O)OC)[C@H]2C1=O
IC50 (H9c2): > 79 µM (inactive)

CC(=O)Nc1sc(N/N=C\c2ccco2)nc1-c1cccs1
IC50 (Large T antigen): 50.8 µM (active)
IC50 [4]: 5.23 µM (active)
